# Test results published in ChEMBL document CHEMBL5104198, “Probing Factor Xa Protein-Ligand Interactions: Accurate Free Energy Calculations and Experimental Validations of Two Series of High-Affinity Ligands” (J Med Chem, 2022).
# Target: T1, Coagulation factor X (Homo sapiens, UniProt P00742)
# Assay: Inhibition of human fXa at 100 uM using Cbz-D-Arg-Gly-L-Arg-pNA as substrate preincubated for 30 mins followed by substrate addition and measured after 60 mins by […] method relative to control
# Conditions: time 90.0 min
# T1 sequence (P00742 41-179 limits assumed): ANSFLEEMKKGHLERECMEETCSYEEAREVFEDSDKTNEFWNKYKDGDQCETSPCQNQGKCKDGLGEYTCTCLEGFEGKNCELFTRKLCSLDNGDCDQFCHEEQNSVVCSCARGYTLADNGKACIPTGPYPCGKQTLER
# T1 sequence (P00742 235-488 limits assumed): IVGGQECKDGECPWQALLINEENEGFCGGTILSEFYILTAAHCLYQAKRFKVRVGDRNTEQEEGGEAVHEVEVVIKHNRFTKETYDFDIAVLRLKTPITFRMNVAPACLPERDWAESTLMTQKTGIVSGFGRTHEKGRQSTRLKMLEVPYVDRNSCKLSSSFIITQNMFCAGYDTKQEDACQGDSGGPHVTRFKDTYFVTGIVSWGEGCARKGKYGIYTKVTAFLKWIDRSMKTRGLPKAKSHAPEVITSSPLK
row,inhibition,Structure (SMILES)
1,66%,CC(C)N1CCC(NC(=O)c2ccn(CC(=O)Nc3ccc(Cl)cc3)c2)CC1

# Target: T1, Coagulation factor X
# Assay: Inhibition of human fXa assessed as inhibition constant using Cbz-D-Arg-Gly-L-Arg-pNA as substrate preincubated for 30 mins followed by substrate addition and measured after 60 mins by […] method
# Conditions: not given
row,Ki,Structure (SMILES)
1,0.5 nM,CC(C)N1CCC(NC(=O)c2nc3ccccc3n2Cc2cc(-c3ccc(Cl)s3)on2)CC1
2,37 nM,CC(C)N1CCC(NC(=O)c2ccn(Cc3cc(-c4ccc(Cl)s4)on3)n2)CC1
3,11 nM,CC(C)N1CCC(NC(=O)c2cc3cccnc3n2CC(=O)Nc2ccc(Cl)cc2)CC1
4,70 nM,CC(C)N1CCC(NC(=O)c2cc3ccccc3n2Cc2cc(-c3ccc(F)s3)on2)CC1
5,4 nM,CC(C)N1CCC(NC(=O)c2cc3cccnc3n2Cc2cc(-c3ccc(Cl)s3)on2)CC1
6,14800 nM,CC(C)N1CCC(NC(=O)c2cn(Cc3cc(-c4ccc(Cl)s4)on3)cn2)CC1
7,204 nM,CC(C)N1CCC(NC(=O)c2ccn(CC(=O)Nc3ccc(Cl)cc3)n2)CC1
8,56 nM,Cc1ccc(NC(=O)Cn2c(C(=O)NC3CCN(C(C)C)CC3)cc3ccccc32)cc1
9,6 nM,CC(C)N1CCC(NC(=O)c2nc3ccccc3n2CC(=O)Nc2ccc(Cl)cc2)CC1
10,5120 nM,CC(C)N1CCC(NC(=O)c2cn(CC(=O)Nc3ccc(Cl)cc3)c3ccccc23)CC1
11,51 nM,CC(C)N1CCC(NC(=O)c2cccn2CC(=O)Nc2ccc(Cl)cc2)CC1
12,162 nM,CC(C)N1CCC(NC(=O)c2cc3ccccc3n2Cc2cc(-c3cccs3)on2)CC1
13,188 nM,CC(C)N1CCC(NC(=O)c2cc3ccccc3n2Cc2cc(-c3ccc(I)s3)on2)CC1
14,20500 nM,CC(C)N1CCC(NC(=O)c2cn(CC(=O)Nc3ccc(Cl)cc3)cn2)CC1
15,63 nM,CC(C)N1CCC(NC(=O)c2cc3ccccc3n2CC(=O)Nc2ccc(F)cc2)CC1
16,1740 nM,CC(C)N1CCC(NC(=O)c2nn(CC(=O)Nc3ccc(Cl)cc3)c3ccccc23)CC1
17,2930 nM,CC(C)N1CCC(NC(=O)c2cn(CC(=O)Nc3ccc(Cl)cc3)c3ncccc23)CC1
18,7 nM,CC(C)N1CCC(NC(=O)c2cc3ccccc3n2CC(=O)Nc2ccc(I)cc2)CC1
19,8 nM,CC(C)N1CCC(NC(=O)c2c3ccccc3nn2Cc2cc(-c3ccc(Cl)s3)on2)CC1
20,12 nM,CC(C)N1CCC(NC(=O)c2cc3ccccc3n2Cc2cc(-c3ccc(Br)s3)on2)CC1
21,49 nM,C#Cc1ccc(NC(=O)Cn2c(C(=O)NC3CCN(C(C)C)CC3)cc3ccccc32)cc1
22,1240 nM,CC(C)N1CCC(NC(=O)c2ccn(Cc3cc(-c4ccc(Cl)s4)on3)c2)CC1
23,57 nM,CC(C)N1CCC(NC(=O)c2cccn2Cc2cc(-c3ccc(Cl)s3)on2)CC1
24,13 nM,C#Cc1ccc(-c2cc(Cn3c(C(=O)NC4CCN(C(C)C)CC4)cc4ccccc43)no2)s1
25,204 nM,CC(C)N1CCC(NC(=O)c2cc3ccccc3n2CC(=O)Nc2ccccc2)CC1
26,52 nM,CC(C)N1CCC(NC(=O)c2ccnn2Cc2cc(-c3ccc(Cl)s3)on2)CC1
27,55 nM,Cc1ccc(-c2cc(Cn3c(C(=O)NC4CCN(C(C)C)CC4)cc4ccccc43)no2)s1

row,Structure (SMILES),Ki
1,CC(C)N1CCC(NC(=O)c2nn(Cc3cc(-c4ccc(Cl)s4)on3)c3ccccc23)CC1,9 nM
2,CC(C)N1CCC(NC(=O)c2cn(Cc3cc(-c4ccc(Cl)s4)on3)c3ncccc23)CC1,65 nM
3,CC(C)N1CCC(NC(=O)c2cn(Cc3cc(-c4ccc(Cl)s4)on3)c3ccccc23)CC1,241 nM
